Data published in ChEMBL document CHEMBL4765332, “A multi-scale systems pharmacology approach uncovers the anti-cancer molecular mechanism of Ixabepilone” (Eur J Med Chem, 2020).
Calls of active or inactive are those of the source. No cut-off for these calls is given here.

Legend:
[1] = target: T1, Apoptosis regulator Bcl-2 (Homo sapiens, UniProt P10415); assay: Induction of Bcl-2 phosphorylation-mediated protein degradation in human U251 cells assessed as decrease in Bcl-2 expression at 0.4 uM measured after 12 to 48 hrs by western blot analysis; type: cell-based; conditions: U-251, time 12-48 hrs
[2] = test system: MDA-MB-231; assay: Effect on Beclin1 expression in human MDA-MB-231 cells at 0.2 uM measured after 48 hrs by western blot analysis; type: functional, cell-based
[3] = test system: U-251; assay: Induction of autophagy in human U251 cells assessed as increase in LC3-II expression at 0.4 to 6.4 uM measured after 48 hrs by western blot analysis; type: functional, cell-based; conditions: dose 0.4-6.4 µM
[4] = test system: MDA-MB-231; assay: Induction of autophagy in human MDA-MB-231 cells assessed as increase in LC3-II level at 0.1 uM by Western blot analysis; type: functional, cell-based; conditions: time 12-48 hrs, TDE = time-dependent effect
[5] = target: T1, Apoptosis regulator Bcl-2; assay: Upregulation of Bcl-2 phosphorylation at Ser70 residue in human BT549 cells at 0.1 microM incubated for 12 to 36 hrs by western blot analysis; type: cell-based; conditions: BT-549, time 12-36 hrs
[6] = test system: MDA-MB-231; assay: Induction of apoptosis in human MDA-MB-231 cells assessed as increase in cleaved PARP level pretreated with 20 uM autophagy inhibitor, CQ for 1 hr followed by incubation with drug for 48 hrs by western blot analysis; type: functional, cell-based
[7] = test system: MDA-MB-231; assay: Cytotoxicity against human MDA-MB-231 cells transfected with non-targeting siRNA at 0.1 to 1.6 uM measured after 48 hrs by CCK8 assay; type: functional, cell-based; conditions: dose 0.1-1.6 µM
[8] = test system: BT-549; assay: Induction of autophagy in human BT-549 cells assessed increase in LC3-II level at 0.1 to 0.2 uM preincubated with 20 uM autophagosome-lysosome fusion inhibitor, chloroquine for 1 hr followed by incubation with compound for 48 hrs by western blot analysis; type: functional, cell-based; conditions: dose 0.1-0.2 µM
[9] = test system: BT-549; assay: Induction of apoptosis in human BT-549 cells assessed as increase in cleaved caspase 3 level pretreated with 20 uM autophagy inhibitor, CQ for 1 hr followed by incubation with drug for 48 hrs by western blot analysis; type: functional, cell-based
[10] = test system: HepG2; assay: Induction of autophagy in human HepG2 cells assessed as increase in LC3-II expression at 0.4 uM measured after 12 to 48 hrs by western blot analysis; type: functional, cell-based; conditions: time 12-48 hrs
[11] = test system: HepG2; assay: Cytotoxicity against human HepG2 cells at 0.1 to 1.6 uM measured after 48 hrs in presence of 20 uM autophagy inhibitor, chloroquine by CCK8 assay; type: functional, cell-based; conditions: dose 0.1-1.6 µM
[12] = target: T1, Apoptosis regulator Bcl-2; assay: Induction of Bcl-2 phosphorylation-mediated protein degradation in human U251 cells assessed as decrease in Bcl-2 expression at 0.4 to 6.4 uM measured after 48 hrs by western blot analysis; type: cell-based; conditions: U-251, dose 0.4-6.4 µM
[13] = target: T1, Apoptosis regulator Bcl-2; assay: Induction of Bcl-2 phosphorylation-mediated protein degradation in human MDA-MB-231 cells assessed as decrease in Bcl-2 expression measured after 48 hrs by western blot analysis; type: cell-based; conditions: dose 0.05-0.4 µM
[14] = target: T1, Apoptosis regulator Bcl-2; assay: Induction of Bcl-2 phosphorylation-mediated protein degradation in human MDA-MB-231 cells assessed as decrease in Bcl-2 expression at 0.1 uM by western blot analysis; type: cell-based; conditions: time 12-48 hrs, TDE = time-dependent effect
[15] = test system: BT-549; assay: Induction of autophagy in human BT-549 cells transfected with GFP-LC3 assessed as increase in GFP-LC3 puncta formation after 12 hrs by fluorescence microscopic analysis; type: functional, cell-based
[16] = test system: BT-549; assay: Induction of autophagy in human BT-549 cells expressing mRFP-EGFP-LC3B assessed as accumulation of yellow fluorescence signals measured after 12 hrs by fluorescence microscopic analysis; type: functional, cell-based
[17] = test system: BT-549; assay: Induction of apoptosis in human BT-549 cells assessed as viable cells incubated for 48 hrs in presence of 20 uM autophagy inhibitor, CQ by AnnexinV-FITC and propidium iodide staining based flow cytometry analysis(reference value: 94.6%); type: functional
[18] = test system: BT-549; assay: Induction of apoptosis in human BT-549 cells assessed as viable cells incubated for 48 hrs by AnnexinV-FITC and propidium iodide staining based flow cytometry analysis(reference value: 98.6%); type: functional
[19] = test system: MDA-MB-231; assay: Cytotoxicity against human MDA-MB-231 cells transfected with Beclin1 siRNA at 0.1 to 1.6 uM measured after 48 hrs by CCK8 assay; type: functional, cell-based; conditions: dose 0.1-1.6 µM
[20] = test system: U-251; assay: Induction of autophagy in human U251 cells assessed as increase in LC3-II expression at 0.4 uM measured after 12 to 48 hrs by western blot analysis; type: functional, cell-based; conditions: time 12-48 hrs
[21] = test system: BT-549; assay: Induction of apoptosis in human BT-549 cells assessed as increase in cleaved PARP level pretreated with 20 uM autophagy inhibitor, CQ for 1 hr followed by incubation with drug for 48 hrs by western blot analysis; type: functional, cell-based
[22] = test system: MDA-MB-231; assay: Cytotoxicity against human MDA-MB-231 cells at 0.1 to 1.6 uM measured after 48 hrs in presence of 2 mM autophagy inhibitor, 3-methyladenine by CCK8 assay; type: functional, cell-based; conditions: dose 0.1-1.6 µM
[23] = test system: MDA-MB-231; assay: Induction of autophagy in human MDA-MB-231 cells transfected with Beclin1 siRNA assessed as LC3-II level at 0.1 uM by western blot analysis; type: functional, cell-based
[24] = test system: BT-549; assay: Induction of apoptosis in human BT-549 cells assessed as early apoptotic cells incubated for 48 hrs by AnnexinV-FITC and propidium iodide staining based flow cytometry analysis(reference value: 0.609%); type: functional
[25] = target: T1, Apoptosis regulator Bcl-2; assay: Induction of Bcl-2 phosphorylation-mediated protein degradation in human BT549 cells assessed as decrease in Bcl-2 expression measured after 48 hrs by western blot analysis; type: cell-based; conditions: BT-549, dose 0.05-0.4 µM
[26] = test system: BT-549; assay: Induction of apoptosis in human BT-549 cells transfected with Beclin1 siRNA assessed as increase in cleaved caspase-3 level measured after 48 hrs by western blot analysis; type: functional, cell-based
[27] = test system: MCF7; assay: Induction of autophagy in human MCF-7 cells assessed as increase in LC3-II level measured after 48 hrs by Western blot analysis; type: functional, cell-based; conditions: dose 0.05-0.4 µM
[28] = target: T1, Apoptosis regulator Bcl-2; assay: Induction of Bcl-2 phosphorylation-mediated protein degradation in human BT549 cells assessed as decrease in Bcl-2 expression at 0.1 uM by western blot analysis; type: cell-based; conditions: BT-549, time 12-48 hrs, TDE = time-dependent effect
[29] = target: T1, Apoptosis regulator Bcl-2; assay: Induction of Bcl-2 phosphorylation-mediated protein degradation in human HepG2 cells assessed as decrease in Bcl-2 expression at 0.4 to 6.4 uM measured after 48 hrs by western blot analysis; type: cell-based; conditions: dose 0.4-6.4 µM
[30] = test system: BT-549; assay: Induction of apoptosis in human BT-549 cells assessed as necrotic cells incubated for 48 hrs by AnnexinV-FITC and propidium iodide staining based flow cytometry analysis(reference value: 0.145%); type: functional
[31] = test system: MDA-MB-231; assay: Induction of apoptosis in human MDA-MB-231 cells assessed as increase in cleaved caspase 3 level pretreated with 20 uM autophagy inhibitor, CQ for 1 hr followed by incubation with drug for 48 hrs by western blot analysis; type: functional, cell-based

T1 sequence (P10415 whole entry): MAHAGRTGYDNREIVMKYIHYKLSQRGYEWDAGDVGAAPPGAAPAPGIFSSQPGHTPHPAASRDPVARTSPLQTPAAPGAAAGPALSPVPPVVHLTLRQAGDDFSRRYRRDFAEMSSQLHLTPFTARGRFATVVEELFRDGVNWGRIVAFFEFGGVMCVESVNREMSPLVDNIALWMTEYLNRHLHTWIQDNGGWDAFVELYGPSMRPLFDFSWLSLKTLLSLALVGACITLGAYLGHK

## C/C(=C\c1csc(C)n1)[C@@H]1C[C@@H]2O[C@]2(C)CCC[C@H](C)[C@H](O)[C@@H](C)C(=O)C(C)(C)[C@@H](O)CC(=O)N1 [IXABEPILONE]
[1]
  Activity: Active
[2]
  Activity: inactive
[3]
  Activity: Active
[4]
  Activity: Tde
[5]
  Activity: Active
[6]
  Activity: Active
[7]
  Activity: Active
[8]
  Activity: Active
[9]
  Activity: Active
[10]
  Activity: Active
[11]
  Activity: Active
[12]
  Activity: Active
[13]
  Activity: Dose-dependent effect
[14]
  Activity: Tde
[15]
  Activity: Active
[16]
  Activity: Active
[17]
  Activity: 74.3%
[18]
  Activity: 86.3%
[19]
  Activity: Active
[20]
  Activity: Active
[21]
  Activity: Active
[22]
  Activity: Active
[23]
  Activity: inactive
[24]
  Activity: 2.17%
[25]
  Activity: Dose-dependent effect
[26]
  Activity: Active
[27]
  Activity: Dose-dependent effect
[28]
  Activity: Tde
[29]
  Activity: Active
[30]
  Activity: 1.47%
[31]
  Activity: Active
